Results reported in publication PMC10734772 (Turkish Journal of Chemistry, 2021).

Experiments:
Type in all cases: cell-based
K562 = experiment: MTT assay, K562 cells; conditions: Homo sapiens, 24 h, MTT, read-out: Viability rate
Protocol: After incubation (on the third day), to precipitate leukemia cells, the cell plate was centrifuged at 1500 rpm for 5 min. […] The 50 μl of supernatant was discarded from each well and 100 μl of DMSO was added to dissolve the formazan. Plates were shaken for 45 min to dissolve the dye. Then the optical density of each well was measured by using Thermo VarioSkan Flush Multimode Reader Quantum ST5-1100 at 570 nm wavelength.
The IC50 values were calculated by using GraphPad Prism. All the data presented as the mean of 6 replicates. […] Statistical analysis was performed using dose-response inhibition, log(inhibitor) vs response-variable slope, least squares (ordinary) fit.

Molt-4 = experiment: MTT assay, Molt-4 cells; conditions: Homo sapiens, MOLT-4, 24 h, read-out: Viability rate
Protocol: (§1) K562, Jurkat, Molt-4, and Nalm-6 cell lines were cultured in RPMI-1640 medium (ECM2001, Euroclone), Reh cell line was cultured in DMEM medium (LM-D1111-Biosera) Hek293T cell line was cultured in IMDM medium (AL070A - HiMedia) supplemented with 10% heat-inactivated fetal bovine serum (F7524-Merck & Co., USA,) penicillin and streptomycin (P4333-Sigma Aldrich). K562, Jurkat and Molt-4 cell lines were seeded as 4x10^5/ml, Reh and Nalm-6 cell lines were seeded 5x10^5/ml, Hek293T cell line was seed as 2x10^5/ml. All cells were incubated at 5% CO2 and 37 °C. All cell lines were kindly provided by Dr. M. Sayitoglu and Dr. Ö. Hatirnaz-Ng from Acibadem University.
(§2) MTT assay is a 3-day test. On the first day, cell count was performed in Bio Rad TC-20 device with the help of trypan blue, each cell line was prepared by diluting to the specified concentrations and seeded in a 96-well plate as 100μL to each well and incubated for 1 day.
(§3) Each compound was solved in DMSO, their stock solutions (33.3, 10, 5, 1 mM, and 300 μM) were prepared by diluting with the same solvent and they were stored under −20°C when they were not used.
(§4) On the second day, stock solutions were subsequently diluted to various concentrations (0.3–200 μM) with related medium prior to experiments. Specified concentrations of the compounds were seeded in a 96-well plate as 100μL to each well and incubated for 24 h.
(§5) After incubation (on the third day), to precipitate leukemia cells, the cell plate was centrifuged at 1500 rpm for 5 min. Then, 100 μL of supernatant was removed from each well carefully and 10 μl of MTT solution (5 mg/mL) was added to each well and incubated at 37 °C for 4 h. The 50 μl of supernatant was discarded from each well and 100 μl of DMSO was added to dissolve the formazan. Plates were shaken for 45 min to dissolve the dye. Then the optical density of each well was measured by using Thermo VarioSkan Flush Multimode Reader Quantum ST5-1100 at 570 nm wavelength.
(§6) Subsequently, viability rate of the cells at each concentration, as percentage, was determined by following formula (1):
(§7) Viability rate (%)=100-[(OD(control)-OD(sample))/OD(control)×100].OD=Optical Density
(§8) The IC50 values were calculated by using GraphPad Prism. All the data presented as the mean of 6 replicates. Results were analyzed and illustrated with Graph Pad Prism (version 5; GraphPad Software, San Diego, CA, USA). Statistical analysis was performed using dose-response inhibition, log(inhibitor) vs response-variable slope, least squares (ordinary) fit.
(§9) To evaluate in-vitro anti-cancer activity of the newly synthesized compounds, they were tested by using the MTT assay in the BCR-ABL positive leukemic cell line (K562), BCR-ABL negative leukemic cell lines (Nalm-6, Molt-4, Reh and Jurkat), and non-leukemic human embryonic kidney tissue (Hek293T) cell line. […] The viability rate of each concentration was calculated by the formula stated in material and methods, the viability rate results for each cell were presented in Table S2 and Figure S44.

Reh = experiment: MTT assay, Reh cells; conditions: Homo sapiens, 24 h, read-out: Viability rate
Protocol: as §1, §2, §3, §4, §5, §6, §7, §8, §9

Jurkat = experiment: MTT assay, Jurkat cells; conditions: Homo sapiens, 24 h, read-out: Viability rate
Protocol: as §1, §2, §3, §4, §5, §6, §7, §8, §9

[1] = MTT assay, Hek293T non-leukemic control cells; conditions: human, read-out: Viability rate
Protocol: as §1, §2, §3, §4, §5, §6, §7, §8, §9

[2] = system: K562, Nalm-6, Molt-4, Reh, Jurkat, Hek293T cell lines; experiment: MTT assay, overall judgement over all cell lines; conditions: overall judgement in words; for 6 and 10: on all cell lines, except Reh
Protocol: as §9

Nalm-6 = experiment: MTT assay, Nalm-6 cells; conditions: Homo sapiens, 24 h

Question: Which results are given for `COc1ccc(CN2CCN(Cc3ccc(C(=O)Nc4ccc(C)c(Nc5nccc(C)n5)c4)cc3)CC2)c(OC)c1OC` [Compound 6]?
Answer: viability at 0.3 µM (K562; K562, 0.3 μM): 92.5 ± 0.11%; viability at 0.5 µM (K562; K562, 0.5 μM): 91.8 ± 0.06%; viability at 1 µM (K562; K562, 1 μM): 91.8 ± 0.04%; viability at 3 µM (K562; K562, 3 μM): 88.7 ± 0.05%; viability at 5 µM (K562; K562, 5 μM): 87.6 ± 0.05%; viability at 10 µM (K562; K562, 10 μM): 87.3 ± 0.11%; viability at 15 µM (K562; K562, 15 μM): 87.3 ± 0.1%; viability at 20 µM (K562; K562, 20 μM): 86.5 ± 0.07%; viability at 30 µM (K562; K562, 30 μM): 85.5 ± 0.1%; viability at 50 µM (K562; K562, 50 μM): 78.1 ± 0.1%; viability at 70 µM (K562; K562, 70 μM): 68.5 ± 0.05%; viability at 100 µM (K562; K562, 100 μM): 67.5 ± 0.03%; viability at 150 µM (K562; K562, 150 μM): 67.3 ± 0.02%; viability at 200 µM (K562; K562, 200 μM): 67.2 ± 0.03%; viability at 0.3 µM (Molt-4; Molt-4, 0.3 μM): 84.4 ± 0.14%; viability at 0.5 µM (Molt-4; Molt-4, 0.5 μM): 79.7 ± 0.1%; viability at 1 µM (Molt-4; Molt-4, 1 μM): 78.7 ± 0.09%; viability at 3 µM (Molt-4; Molt-4, 3 μM): 79.7 ± 0.18%; viability at 5 µM (Molt-4; Molt-4, 5 μM): 80.5 ± 0.16%; viability at 10 µM (Molt-4; Molt-4, 10 μM): 81.8 ± 0.07%; viability at 15 µM (Molt-4; Molt-4, 15 μM): 79.2 ± 0.15%; viability at 20 µM (Molt-4; Molt-4, 20 μM): 76 ± 0.05%; viability at 30 µM (Molt-4; Molt-4, 30 μM): 75.4 ± 0.08%; viability at 50 µM (Molt-4; Molt-4, 50 μM): 73.5 ± 0.04%; viability at 70 µM (Molt-4; Molt-4, 70 μM): 68.9 ± 0.06%; viability at 100 µM (Molt-4; Molt-4, 100 μM): 61.7 ± 0.02%; viability at 150 µM (Molt-4; Molt-4, 150 μM): 59.9 ± 0.05%; viability at 200 µM (Molt-4; Molt-4, 200 μM): 55.2 ± 0.04%; viability at 0.3 µM (Reh; 0.3 μM): 109.5 ± 0.02%; viability at 0.5 µM (Reh; 0.5 μM): 105.2 ± 0.02%; viability at 1 µM (Reh; 1 μM): 106.8 ± 0.01%; viability at 3 µM (Reh; 3 μM): 107.9 ± 0.02%; viability at 5 µM (Reh; 5 μM): 108.2 ± 0.01%; viability at 10 µM (Reh; 10 μM): 106.9 ± 0.02%; viability at 15 µM (Reh; 15 μM): 106.5 ± 0.02%; viability at 20 µM (Reh; 20 μM): 97.7 ± 0.02%; viability at 30 µM (Reh; 30 μM): 88.6 ± 0.03%; viability at 50 µM (Reh; 50 μM): 85.6 ± 0.02%; viability at 70 µM (Reh; 70 μM): 65.3 ± 0.02%; viability at 100 µM (Reh; 100 μM): 62.2 ± 0.01%; viability at 150 µM (Reh; 150 μM): 61.3 ± 0.01%; viability at 200 µM (Reh; 200 μM): 61.1 ± 0.02%; viability at 3 µM (Jurkat; 3 μM): 79.1 ± 0.02%; viability at 5 µM (Jurkat; 5 μM): 69.8 ± 0.02%; viability at 10 µM (Jurkat; 10 μM): 69.7 ± 0.05%; viability at 15 µM (Jurkat; 15 μM): 69.2 ± 0.02%; viability at 20 µM (Jurkat; 20 μM): 68.9 ± 0.01%; viability at 30 µM (Jurkat; 30 μM): 68.8 ± 0.03%; viability at 50 µM (Jurkat; 50 μM): 59.1 ± 0.03%; viability at 70 µM (Jurkat; 70 μM): 47.8 ± 0.01%; viability at 100 µM (Jurkat; 100 μM): 44 ± 0.01%; viability at 150 µM (Jurkat; 150 μM): 36.4 ± 0.01%; viability at 200 µM (Jurkat; 200 μM): 35.3 ± 0.01%; viability at 24 h, 0.3 µM ([1]; Hek293T cells (non-leukemic control cell line), 0.3 μM): 91.1 ± 0.15%; viability at 24 h, 0.5 µM ([1]; Hek293T cells (non-leukemic control cell line), 0.5 μM): 90.8 ± 0.14%; viability at 24 h, 3 µM ([1]; Hek293T cells (non-leukemic control cell line), 3 μM): 81.4 ± 0.09%; viability at 24 h, 5 µM ([1]; Hek293T cells (non-leukemic control cell line), 5 μM): 78.5 ± 0.14%; viability at 24 h, 10 µM ([1]; Hek293T cells (non-leukemic control cell line), 10 μM): 78.2 ± 0.02%; viability at 24 h, 15 µM ([1]; Hek293T cells (non-leukemic control cell line), 15 μM): 70.6 ± 0.04%; viability at 24 h, 20 µM ([1]; Hek293T cells (non-leukemic control cell line), 20 μM): 65.5 ± 0.1%; viability at 24 h, 30 µM ([1]; Hek293T cells (non-leukemic control cell line), 30 μM): 57.4 ± 0.09%; viability at 24 h, 50 µM ([1]; Hek293T cells (non-leukemic control cell line), 50 μM): 50.7 ± 0.05%; viability at 24 h, 70 µM ([1]; Hek293T cells (non-leukemic control cell line), 70 μM): 48.8 ± 0.02%; viability at 24 h, 100 µM ([1]; Hek293T cells (non-leukemic control cell line), 100 μM): 47.9 ± 0.01%; viability at 24 h, 150 µM ([1]; Hek293T cells (non-leukemic control cell line), 150 μM): 47.7 ± 0.02%; viability at 24 h, 200 µM ([1]; Hek293T cells (non-leukemic control cell line), 200 μM): 47 ± 0.02%; viability at 24 h, 1 µM ([1]; Hek293T cells, 1 μM): 87 ± 0.15%; anticancer activity according to MTT assay results [2]: high anticancer activity; viability at 0.3 µM (Nalm-6; Nalm-6, 0.3 μM, MTT, read-out: Viability rate): 100.7 ± 0.01%; viability at 0.5 µM (Nalm-6; Nalm-6, 0.5 μM, MTT, read-out: Viability rate): 100.5 ± 0.02%; viability at 1 µM (Nalm-6; Nalm-6, 1 μM, MTT, read-out: Viability rate): 100.1 ± 0.03%; viability at 3 µM (Nalm-6; Nalm-6, 3 μM, MTT, read-out: Viability rate): 100 ± 0.04%; viability at 5 µM (Nalm-6; Nalm-6, 5 μM, MTT, read-out: Viability rate): 98.8 ± 0.04%; viability at 10 µM (Nalm-6; Nalm-6, 10 μM, MTT, read-out: Viability rate): 98 ± 0.02%; viability at 15 µM (Nalm-6; Nalm-6, 15 μM, MTT, read-out: Viability rate): 95.6 ± 0.02%; viability at 20 µM (Nalm-6; Nalm-6, 20 μM, MTT, read-out: Viability rate): 82.6 ± 0.02%; viability at 30 µM (Nalm-6; Nalm-6, 30 μM, MTT, read-out: Viability rate): 71.6 ± 0.01%; viability at 50 µM (Nalm-6; Nalm-6, 50 μM, MTT, read-out: Viability rate): 55.2 ± 0.01%; viability at 70 µM (Nalm-6; Nalm-6, 70 μM, MTT, read-out: Viability rate): 43.5 ± 0.01%; viability at 100 µM (Nalm-6; Nalm-6, 100 μM, MTT, read-out: Viability rate): 42.6 ± 0.01%; viability at 150 µM (Nalm-6; Nalm-6, 150 μM, MTT, read-out: Viability rate): 42.9 ± 0.01%; viability at 200 µM (Nalm-6; Nalm-6, 200 μM, MTT, read-out: Viability rate): 42.8%; IC50 (Nalm-6; Nalm-6, MTT, range 0.3–200 μM, six replicates): 48 µM
